Experimental data as given in patent US6060505A (priority 1999, dated 2000).
Like-named read-outs stand apart in the source and are kept apart here.

Key:
protein kinase C [1] = conditions: cited from earlier work
[2] = tested on: [3H]thymidine incorporation; assay: [3H]thymidine incorporation with or without bisindolyl-maleimide I; assay type: cell-based; conditions: for [3H]thymidine incorporation expressed as percent of control: bryostatin 1 or epi-bryostatin 1 3 uM
Protocol: (§1) For [^3 H]-thymidine incorporation assays, melanoma cells growing in log phase at a density of 40-50% confluency were treated for one day with the indicated compound.
(§2) Bisindolyl-maleimide I was used to inhibit both PMA and bryostatin 1 induced protein kinase C activity and bryostatin 1 induced inhibition of [^3 H]thymidine incorporation.
The effect of bisindolyl-maleimide I cotreatment on induction of protein kinase C activity and [^3 H]thymidine incorporation in response to PMA or bryostatin 1.

protein kinase C [3] = assay type: cell-based; conditions: for fold increase of protein kinase C activity: PMA 10 nM, bryostatin 1 3 uM, 10 min
Protocol: as §2
Protein kinase C activity was assayed in cell lysates by measuring the incorporation of ^32 P from [γ-^32 P]ATP into acetylated myelin basic protein peptide (4-14) (Ac-MBP(4-14)) by methods known in the art (Nakadate et al., Biochem. Pharmacol., 37, 1541-1545 (1988)). The cells were treated at 60-75% confluency with bryostatin 1, 26-epi-bryostatin 1 and/or bisindolyl-maleimide I for 10 min. The cells were lysed by sonication in 20 mM Tris-HCl, pH 7.4, containing 5 mM EGTA and 20 uM leupeptin. 5 ul of cell lysate was added to 15 ul kinase buffer (20 mM HEPES, pH 7.5, 10 mM MgCl2, 0.5 mM CaCl2, 1 mM 4-(2-aminoethyl)benzenesulfonyl fluoride, 20 uM leupeptin, and 10 ug/ml aprotinin) containing 50 uM substrate, and 2 uCi [γ-^32 P]ATP at a concentration 50 uM ATP. The kinase reaction was incubated for 10 minutes at 30 ° C. The incorporated radioactivity was measured with a Pharmacia Biotech 1218 liquid scintillation counter.

[4] = tested on: B16/F10 melanoma cell line; assay: [3H]thymidine incorporation assay in melanoma cells (one day treatment); assay type: cell-based; conditions: for IC50: read-out: ED50, inhibition of [3H]thymidine incorporation
Source text: FIG. 2A depicts the percentage of incorporation of [^3 H]thymidine relative to a control sample (y-axis) plotted as a function of the concentration (nM) of bryostatin 1 (squares) or 26-epibryostatin 1 (circles)
(§3) The unmodified and C-26 modified bryostatins were used in [^3 H]thymidine incorporation and cell proliferation assays. The phorbol ester PMA, a ligand for protein kinase C was also used in this example to provide a separate control sample. The selection of PMA as a control sample is particularly appealing since bryostatins antagonize a subset of the actions of PMA. [^3 H]Thymidine incorporation is a measure of DNA synthesis, which is often used as a marker of cell replication. Chronic cell growth assays are an alternative measure of cell growth, usually performed over longer periods of time.
as §1

C57BL/6 mice = assay: in vivo toxicity in C57BL/6 mice, 7 days observation
Protocol: C57BL/6 mice were injected with either 500 ug/kg or 1500 ug/kg 26-epi-bryostatin 1 or 150 ug/kg or 500 ug/kg bryostatin 1.

mice = conditions: cited from earlier work
[5] = tested on: B16/F10 melanoma cell line; assay: cells; assay type: cell-based; conditions: for cytostatic / cytotoxic effect: 3 uM
Protocol: The effect of bryostatin 1 and phorbol 12-myristate 13-acetate (PMA) on the proliferation of the B16/F10 melanoma cell line was first determined. Bryostatin 1 inhibited [^3 H]thymidine incorporation with an ED50 of 600±80 nM (n=3) and with a maximum inhibition of 60% (FIG. 2A). […] The effect on cell growth of chronic treatment with bryostatin 1 or PMA was also determined. […] In contrast to bryostatin 1, PMA increased the cell growth by 75±10% (n=3) at a dose of 10 nM; the dose response curve was biphasic, with smaller effects at higher and lower applied doses (FIG. 2B).
During the 4-day treatment schedule, the number of cells in the control group increased 80 to 100-fold.

[6] = tested on: lymphoma, renal cancer, melanoma, leukemia, and ovarian cancer; conditions: cited from earlier work
[7] = tested on: B16-F10 melanoma cell line; assay: chronic cell growth (cell proliferation) assay, 4 days; assay type: cell-based; conditions: for IC50: read-out: ED50, dose required to reduce cell growth by 50%, 5760 min
Source text: FIG. 2B depicts the results of a chronic cell growth assay wherein the number of cells expressed as a percentage of a control sample (y-axis) are plotted as a function of the concentration (nM) of bryostatin 1 (squares), 26-epibryostatin 1 (circles), or PMA (triangles).
as §3
For the cell proliferation assays, the B16-F10 melanoma cell line with high pulmonary metastatic potency (from the laboratory of Dr. I. J. Fidler, Frederick Cancer Research and Development Center, Frederick, Md.) were plated at a density of 10^3 cells/well in Costar 12-well tissue culture plates. The cells were then treated with different concentrations of bryostatin 1, 26-epi-bryostatin 1, or PMA in 0.1% DMSO 1 and 3 days after plating. Total cell number was determined 4 days after plating.

humans = conditions: three infusions of 2 μg/kg; cited from earlier work
protein kinase C [8] = conditions: cited from earlier work; remark: listed apart in the source
[9] = with BIM-I (1 uM), PMA 10 nM, 1440 min
[10] = without BIM-I, PMA 10 nM, 1440 min

Structure (SMILES): CN(C)CCCn1cc(C2=C(c3c[nH]c4ccccc34)C(=O)NC2=O)c2ccccc21 [BIM-I, bisindolyl-maleimide I]
- protein kinase C inhibition (protein kinase C [1]): powerful and specific protein kinase C inhibitor
- effect on PMA-induced increase in [3H]thymidine incorporation ([2]; BIM-I 1 uM, PMA 10 nM): inhibited the modest PMA-induced increase
- effect on bryostatin induced decrease in thymidine incorporation ([2]; BIM-I 1 uM, bryostatin 1 3 uM): slightly enhanced
- effect on inhibition of thymidine incorporation by bryostatin 1 ([2]; BIM-I 1 uM, bryostatin 1 3 uM): did not block
- [3H]thymidine incorporation expressed as percent of control ([2]; with BIM-I (1 uM), PMA 10 nM): 91 ± 2% of control
- inhibition of PMA or bryostatin 1 induced protein kinase C enzymatic activity (protein kinase C [3]; BIM-I 1 uM, PMA 10 nM or bryostatin 1 3 uM): completely inhibited

Structure (SMILES): CCCC=CC=CC(=O)OC1C(=CC(=O)OC)CC2CC(C(C)O)OC(=O)CC(O)CC3CC(OC(C)=O)C(C)(C)C(O)(CC4CC(=CC(=O)OC)CC(C=CC(C)(C)C1(O)O2)O4)O3 (centres unmarked) [bryostatin 1]
- inhibition at 3 µM ([4]; Mus musculus, B16-F10, 3 h, read-out: maximum inhibition of [3H]thymidine incorporation, B16/F10 melanoma, highest dose tested 3 uM): 60%
- IC50 ([4]; Mus musculus, B16-F10, 24 h): 600 ± 80 nM
- toxicity (C57BL/6 mice; 150 ug/kg injected): only relatively minor toxic effects
- toxicity, lethality (C57BL/6 mice; 500 ug/kg bryostatin 1 injected): lethal for all animals tested by the third day after injection
- lethal dose (mice): greater than 200 μg/kg
- inhibition of [3H]thymidine incorporation of bryostatin 1 plus bisindolyl-maleimide I relative to 26-epi-bryostatin 1 alone ([2]; combination with BIM-I): same level of inhibition
- [3H]thymidine incorporation expressed as percent of control [2, 9]: 25 ± 5% of control
- [3H]thymidine incorporation expressed as percent of control [2, 10]: 43 ± 2% of control
- cytostatic / cytotoxic effect [5]: arrested growth rather than killed cells
- cytotoxicity at 3 µM ([5]; Mus musculus, B16-F10, 96 h, after treatment in the cell growth assay, read-out: cell death (trypan blue exclusion)): < 1%
- antineoplastic effectiveness [6]: directly shown to be effective
- fold increase of protein kinase C activity (protein kinase C [3]; with BIM-I (1 uM)): 1.07 ± 0.04 fold
- fold increase of protein kinase C activity (protein kinase C [3]; without BIM-I): 3.02 ± 0.3 fold
- inhibition of cell growth (maximal, highest dose tested) ([7]; 4 days, 3 uM): 75±5%
- IC50 ([7]; chronic treatment, 4 days): 50 ± 15 nM
- side-effects (humans): significant side-effects including myalgia and hypotension

Structure (SMILES): CCC/C=C/C=C/C(=O)O[C@H]1/C(=C/C(=O)OC)C[C@H]2C[C@H]([C@@H](C)OC(C)=O)OC(=O)C[C@H](O)C[C@@H]3C[C@H](OC(C)=O)C(C)(C)[C@](O)(C[C@@H]4C/C(=C/C(=O)OC)C[C@H](/C=C/C(C)(C)[C@]1(O)O2)O4)O3 [C-26 acetate ester of bryostatin]
- binding activity / affinity for protein kinase C (protein kinase C [8]): decreased binding activity

Structure (SMILES): CCCCCCCCCCCCCC(=O)O[C@@H]1[C@@H](C)[C@@]2(O)[C@@H](C=C(CO)C[C@]3(O)C(=O)C(C)=C[C@@H]23)[C@@H]2C(C)(C)[C@]12OC(C)=O [PMA, phorbol 12-myristate 13-acetate]
- activity at 0.01 µM ([4]; Mus musculus, B16-F10, 24 h, 10 nM, read-out: [3H]thymidine incorporation (slight increase)): 120 ± 20%
- effect on [3H]thymidine incorporation ([4]; dose range between 0.1 nM to 3 uM): no significant effect
- [3H]thymidine incorporation expressed as percent of control ([2]; with BIM-I (1 uM), PMA 10 nM): 98 ± 11% of control
- [3H]thymidine incorporation expressed as percent of control ([2]; without BIM-I, PMA 10 nM): 120 ± 22% of control
- fold increase of protein kinase C activity (protein kinase C [3]; with BIM-I (1 uM)): 1.08 ± 0.1 fold
- fold increase of protein kinase C activity (protein kinase C [3]; without BIM-I): 4.4 ± 0.1 fold
- activation at 0.01 µM ([7]; Mus musculus, B16-F10, 96 h, 10 nM, chronic treatment, read-out: increase in cell growth): 75 ± 10%
- dose response curve of cell growth ([7]; smaller effects at higher and lower applied doses than 10 nM): biphasic

Structure (SMILES): CCCC=CC=CC(=O)OC1C(=CC(=O)OC)CC2CC(C(C)O)OC(=O)CC(O)CC3CC(OC(C)=O)C(C)(C)C(O)(CC4CC(=CC(=O)OC)CC(C=CC(C)(C)C1(O)O2)O4)O3 (stereo not drawn) [26-epi-bryostatin 1]
- maximum inhibition of [3H]thymidine incorporation ([4]; B16/F10 melanoma, highest dose tested 3 uM): 80±5%
- inhibitory potency relative to bryostatin 1, [3H]thymidine incorporation ([4]; compared with bryostatin 1): inhibitory potency similar to that of bryostatin 1
- maximum extent of inhibition relative to bryostatin 1, [3H]thymidine incorporation ([4]; compared with bryostatin 1): greater than for bryostatin 1
- IC50 ([4]; B16/F10 melanoma, one day, 1440 min): 600 ± 120 nM
- toxicity (C57BL/6 mice; 500 ug/kg injected): only relatively minor toxic effects
- toxicity (C57BL/6 mice; 1500 ug/kg injected): only relatively minor toxic effects
- therapeutic index relative to bryostatin 1 (C57BL/6 mice; compared with bryostatin 1): higher therapeutic index
- toxicity relative to bryostatin 1 (C57BL/6 mice; compared with bryostatin 1): significantly less toxic than bryostatin 1
- [3H]thymidine incorporation expressed as percent of control [2, 9]: 20 ± 5% of control
- [3H]thymidine incorporation expressed as percent of control [2, 10]: 21 ± 3% of control
- cytostatic / cytotoxic effect [5]: powerful cytostatic agent with no cytotoxic effect
- cell death (trypan blue exclusion) ([5]; after treatment in the cell growth assay, 5760 min, 3 µM): less than 1%
- affinity for protein kinase C of 26-epi-bryostatin 1 (protein kinase C [8]; compared with bryostatin 1): significantly reduced affinity
- growth arrest ([7]; 3 uM, 4 days): almost complete growth arrest
- inhibition of cell growth (maximal, highest dose tested) ([7]; 4 days, 3 uM): 97±3%
- maximum extent of inhibition relative to bryostatin 1, cell growth ([7]; compared with bryostatin 1): greater than for bryostatin 1
- reduction in potency relative to bryostatin 1, chronic cell growth assay ([7]; compared with bryostatin 1): 3 fold
- IC50 ([7]; chronic treatment, 4 days): 140 ± 30 nM

Structure (SMILES): CCCC(=O)O[C@H]1/C(=C/C(=O)OC)C[C@H]2C[C@H]([C@H](C)O)OC(=O)C[C@H](O)C[C@@H]3C[C@H](OC(=O)C(C)(C)C)C(C)(C)[C@](O)(C[C@@H]4C/C(=C/C(=O)OC)C[C@H](/C=C/C(C)(C)[C@]1(O)O2)O4)O3 [C-26 epimer of bryostatin 4]
- binding activity / affinity for protein kinase C (protein kinase C [8]): decreased binding activity
